Data set [1] has as its system ecto-nucleotide pyrophosphatase/phosphodiesterase 1 (ENPP1). Conditions: versus naturally produced 2′3′-cGAMP; Kato K. et al.; cited from earlier work.
Data set [2] deals with phosphorylated-IRF3 (p-IRF3). In words: Western blot of B16F10 tumors. The class given is in vivo, mice. As to conditions: tumors at day 16; cGAMP-MPs single injection, cGAMP-S three injections. The protocol: (§1) Mice bearing B16F10 tumors were treated with the following 4 experimental groups (n=8): untreated, 1×EPs, 3×cGAMP-S, and 1×cGAMP-S plus cGAMP-MPs, respectively (FIG. 4A). Tumors were collected at day 16 post tumor inoculation and cut into 50-100 mg small pieces in a 1.5 mL microcentrifuge tube. The tumors were lysed in radioimmunoprecipitation assay (RIPA) buffer (Sigma-Aldrich), homogenized, and centrifuged at 20130 rcf for 10 min. The protein content in the supernatant was quantified using a bicinchoninic acid protein assay kit (Thermo Fisher Scientific, MA, USA). Equal amounts of proteins (20 μg) were separated on a 4 to 15% gradient SDS-polyacrylamide gel (Bio-Rad, Hercules, CA) and electro-transferred to nitrocellulose membrane. The membranes were then blocked with 5% milk in tris-buffered saline supplemented with 0.05% Tween 20 and further incubated with GAPDH monoclonal antibody (Invitrogen, CA, cat. no. MA5-27912), phospho-TBK1/NAK (Ser172) (D52C2) Rabbit mAb (Cell Signaling Technology, cat. no. 5483S), or phospho-IRF-3 (S396) Rabbit mAb (Cell Signaling Technology, cat. no. 4947S) at 4° C. overnight. The membranes were then incubated with goat anti-rabbit IgG (H+L) Secondary Antibody, HRP (Invitrogen, cat. no. TG266717) for 1 h at room temperature. Protein bands were visualized by chemiluminescence using the ECL Western Blotting Substrate (Thermo Fisher Scientific, MA).
(In general: A western blot detects proteins with antibodies after separation by electrophoresis.)

Data set [3] deals with phosphorylated-TBK1 (p-TBK1). In words: Western blot of B16F10 tumors. As to conditions: tumors at day 16; cGAMP-MPs single injection, cGAMP-S three injections. It is filed as in vivo, mice. As for the experimental part: as §1
For data set [4], the system named is apoptotic cells in B16F10 tumors. The experiment in a line: TUNEL staining of tumor sections. It is filed as in vivo, mice. As to conditions: cGAMP-MPs single injection, cGAMP-S three injections. As for the experimental part:
Tumor sections (5 μm) were fixed with 4% paraformaldehyde, blocked with 3% bovine serum albumin, and permeabilized with 0.1% Triton X-100 in PBS. The tumor sections were then incubated with anti-CD8 alpha antibody (1:200, Abcam, cat. no. ab217344) at 4° C. overnight and goat anti-rabbit IgG H&L (Alexa Fluor® 488) (1:1000, Abcam, cat. no. ab150077) secondary antibody at room temperature for 1 h. Apoptotic tumor cells were stained using a in situ cell death detection kit (Roche) according to the manufacturer's instructions. Images were acquired on a Nikon A1R Ultra-Fast Spectral Scanning Confocal Microscope (Shinagawa, Tokyo).

The subject of data set [5] is immune cells in TME of B16F10 melanoma tumors. The experiment in a line: Flow cytometry of immune cells in B16F10 TME. It is filed as in vivo, mice. As for the experimental part: as §1
To stain the intracellular marker, e.g., IFN-γ, cells were pre-stimulated with cell stimulation cocktail (eBioscience, cat. no. 00-4970-93) for 4-6 h, fixed and permeabilized using fixation/permeabilization solution kit (BD, cat. no. 554714), and then stained with both anti-IFN-γ and other surface antibodies. Antibodies used for flow cytometry studies were anti-CD86-BUV395 (BD, cat. no. 564199), anti-CD45-BUV737 (BD, cat. no. 564880), anti-TCRβ-BV421 (Biolegend, cat. no. 109229), anti-NK1.1-BV605 (Biolegend, cat. no. 108739), anti-NK1.1-BV605 (Biolegend, cat. no. 108739), anti-CD8a-FITC (BD, cat. no. 553030), anti-CD4-PerCP/Cy5.5 (BD, cat. no. 550954), anti-CD62L-PE (Biolegend, cat. no. 104407), anti-CD19-PE/Cy7 (eBioscience, cat. no. 25-0193-81), anti-CD3-PE/594 (Biolegend, cat. no. 100245), anti-FOXP3-APC (eBioscience, cat. no. 17-5773-80), anti-CD11b-AF700 (Biolegend, cat. no. 201222), anti-CD8a-BV421 (Biolegend, cat. no. 100737), anti-Ly6g-BV510 (Biolegend, cat. no. 127633), anti-Siglec F-BV605 (BD, cat. no. 740388), anti-MHC II-BV786 (BD, cat. no. 743875), anti-Ly6c-AF488 (Biolegend, cat. no. 128021), anti-CD11c-PerCP/Cy5.5 (Biolegend, cat. no. 117327), anti-CD206-PE (Biolegend, cat. no. 141705), anti-CD197-PE/594 (Biolegend, cat. no. 120121), anti-F4/80-PE/Cy7 (Biolegend, cat. no. 123113), anti-CD200R3-APC (Biolegend, cat. no. 142207), anti-CD11b-AF700 (Biolegend, cat. no. 101222), and viability dye eFluor 780 (eBiosciecne, cat. no. 65-0865-14). Flow cytometry data were acquired on an LSRFortessa cell analyzer (BD) and analyzed using FlowJo software.
(In general: A flow cytometer gives signals particle by particle.)

The mark [6] stands for this setting: day 16, cGAMP-MPs single injection, cGAMP-S three injections.

In the case of `Nc1nc2c(ncn2[C@@H]2O[C@@H]3COP(=O)(O)O[C@H]4[C@@H](O)[C@H](n5cnc6c(N)ncnc65)O[C@@H]4COP(=O)(O)O[C@H]3[C@H]2O)c(=O)[nH]1` [cGAMP-S, 3′3′-cGAMP], the “stability against ENPP1” value in data set [1] is recorded as “enhanced stability”. The “expression of p-IRF3” value in data set [2] is given as “high expression levels”. Further, the “expression of p-TBK1” value in data set [3] is on record as “high expression levels”. In addition, the “apoptotic cells (TUNEL)” value in data set [4] is on record as “greater abundance of apoptotic cells”. In data set [5] (3 doses of soluble cGAMP or 1 dose of cGAMP-MPs), the “polarization of macrophages within the TME” value is recorded as “repolarization of M2-like macrophages in the tumor to M1-like phenotype”. Besides, in data set [5] (setting [6]), the “increase of CD8+/CD4+ T cell ratio” value came to 1.2 fold, the “increase of TILs compared to untreated” value is reported as “approximately 23.5 fold”, the “increase of surface expression of CD86 on tumor infiltrating DCs” value was determined as 1.7 fold and the “increase of tumor-infiltrating CD4+ T cells” value was 23.6 fold. Besides, in data set [5] (setting [6]), the “increase of tumor-infiltrating CD8+ T cells” value was found to be 24.4 fold; the “infiltrating natural killer (NK) cells” value is “increased”; the “influx of DCs, basophils, monocytes and macrophages” value was “promoted the influx”.
